Test results from paper PMC4569695, “Optogenetic manipulation of cGMP in cells and animals by the tightly light-regulated guanylyl-cyclase opsin CyclOp” (Nature Communications, 2015).

Biological target: T1, bPGC (Beggiatoa sp. PS, UniProt Z9M4H6XJE9, K200E/D268K/T270G)
T1 construct: triple mutant of human codon-optimized bPAC, C-terminal YFP, expressed in Xenopus oocytes
T1 sequence (Z9M4H6XJE9 4-353 K200E/D268K/T270G): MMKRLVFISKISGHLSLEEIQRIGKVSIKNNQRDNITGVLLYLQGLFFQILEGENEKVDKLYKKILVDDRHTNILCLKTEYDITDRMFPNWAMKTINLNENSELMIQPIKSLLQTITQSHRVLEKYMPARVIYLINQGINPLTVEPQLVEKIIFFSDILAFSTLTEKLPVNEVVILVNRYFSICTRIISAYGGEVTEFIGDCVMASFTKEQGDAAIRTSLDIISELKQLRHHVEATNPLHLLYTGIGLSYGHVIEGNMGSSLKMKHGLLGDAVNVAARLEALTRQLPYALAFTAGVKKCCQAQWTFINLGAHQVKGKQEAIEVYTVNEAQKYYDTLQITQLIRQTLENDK
Assay: cGMP immunoassay, extracts of intact oocytes
Format: cell-based
Settings: endogenous GTP, 464 nm light

Nc1nc2c(ncn2[C@@H]2O[C@H](COP(=O)(O)OP(=O)(O)OP(=O)(O)O)[C@@H](O)[C@H]2O)c(=O)[nH]1 [GTP]
cGMP immunoassay, extracts of intact oocytes: bPGC produced at least one cAMP for every four cGMP molecules under in vivo conditions
